In patent US8778958B2, “Synthesis of metabolically stable agents for alcohol and drug abuse” (priority 2008, dated 2014):
Like-named read-outs stand apart in the source and are kept apart here.

Tests used:
[1] = system: rats trained to self-administer a 10% (w/v) ethanol solution; experiment: Operant oral ethanol self-administration; assay type: in vivo, rat; conditions: for Overall effect on operant self-administration of 10% ethanol: ANOVA, treatment 30 min prior to testing; for ED50: Rattus norvegicus, po, read-out: ED50 for ethanol self-administration
Description: (§1) Ethanol or saccharin (SACC) self-administration training was conducted in standard operant cages (Coulbourn Instruments, PA) located in sound-attenuated, ventilated cubicles. Two 35-ml syringes dispensed either ethanol/SACC or water through plastic tubing into two stainless steel drinking cups mounted 4 cm above the grid floor and centered on the front panel of each chamber. Each drinking cup held 2 reinforcer deliveries (0.1 ml fluid/reinforcer). Two retractable levers were located 4.5 cm to either side of the drinking cups. Fluid delivery and recording of operant responses were controlled by a microcomputer. Briefly, animals were trained to voluntarily self-administer 10% (w/v) ethanol (n=10) or saccharin (n=6) by the oral route using the saccharin fadeout method^39 and were tested for their response for ethanol or saccharin solution in a two-lever free choice situation. Once baseline ethanol and saccharin intake were achieved (i.e., when responding across 3 consecutive days varied less than 20% and response rates correspond to pharmacologically relevant blood alcohol levels (BALs)), dose response testing for each compound commenced. To allow for a complete dissipation of any carry-over effects, a one week washout period, where rats were re-baselined during daily 30 min operant sessions, occurred between testing of each compound.
(§2) Data were collected on-line simultaneously from multiple operant chambers. Results of the operant procedure are reported as mean cumulative number of bar presses for ethanol or saccharin. In general, tests for homogeneity of variance were first performed on the data. […] Data were analyzed using the StatView statistical package on a PC-compatible computer. Mixed-design ANOVAs were used with drug treatments as a within-subjects factor (i.e., repeated measures design for drug treatment). A priori analysis examining individual drug doses to vehicle control dose was conducted using paired t-tests. Significant drug effects were defined as having p<0.05 compared to vehicle-treated rats.

[2] = Metabolic stability, mouse liver microsomes; conditions: for half-life at 40 μM: mouse, microsomes, pH 7.4; for Half Life, Mouse liver preparation: 40 μM test compound, NADPH-generating system, NC = No Change
Description: (§3) A typical assay mixture contained rat or mouse liver microsomes or human liver S-9 (0.4-0.5 mg of protein), 100 μM potassium phosphate buffer (pH 7.4), 40 μM test compound, an NADPH-generating system consisting of 0.5 mM NADP^+, 0.5 mM glucose-6-phosphate, 5 IU/mL glucose-6-phosphate dehydrogenase, 1 mg/mL DETAPAC and 7 mM MgCl2 for a final incubation volume of 0.1 mL^23. […] After centrifugation at 13,000 rpm for 5 min, the organic fraction was collected and the solvent was removed with a stream of argon. The residue was reconstituted in methanol (200 L), centrifuged at 13,000 rpm for 5 min and the supernatant was analyzed by high-performance liquid chromatography with an Axxi-chrom (straight-phase) silica column (4.6 mm×250 mm, 5 m) or with a Supelco (reverse-phase) HS F5 pentafluorophenyl column (4.6 mm×250 mm, 5 m) as described above.

[3] = Metabolic stability, human liver S-9; conditions: for half-life at 40 μM: human, s9, pH 7.4; for Half Life, Human liver preparation: 40 μM test compound, NADPH-generating system, NC = No Change
Description: as §3

[4] = system: rats trained to orally self-administer a 0.025% saccharin solution; experiment: Operant oral saccharin self-administration (control); assay type: in vivo, rat; conditions: for Overall effect on operant self-administration of saccharin vs vehicle: ANOVA
Description: as §1, §2

[5] = molecular target: T1, NOP (nociceptin) receptor (Homo sapiens, UniProt P41146)
T1 sequence (P41146 whole entry): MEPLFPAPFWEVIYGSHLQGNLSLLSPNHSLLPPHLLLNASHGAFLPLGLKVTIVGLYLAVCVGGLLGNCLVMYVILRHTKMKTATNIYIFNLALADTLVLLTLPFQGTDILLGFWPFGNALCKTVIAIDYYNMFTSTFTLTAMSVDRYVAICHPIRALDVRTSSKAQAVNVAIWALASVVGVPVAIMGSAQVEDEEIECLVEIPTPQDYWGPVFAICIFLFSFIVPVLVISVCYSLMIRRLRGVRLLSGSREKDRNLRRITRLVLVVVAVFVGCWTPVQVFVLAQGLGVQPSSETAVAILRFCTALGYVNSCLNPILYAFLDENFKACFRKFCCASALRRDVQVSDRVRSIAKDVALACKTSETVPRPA

[6] = molecular target: T2, μ-opioid receptor (Mus musculus, UniProt P42866); experiment: biochemical; set-up: species or system human
T2 construct: FLAG; expressed in transfected cells
T2 sequence (P42866 whole entry): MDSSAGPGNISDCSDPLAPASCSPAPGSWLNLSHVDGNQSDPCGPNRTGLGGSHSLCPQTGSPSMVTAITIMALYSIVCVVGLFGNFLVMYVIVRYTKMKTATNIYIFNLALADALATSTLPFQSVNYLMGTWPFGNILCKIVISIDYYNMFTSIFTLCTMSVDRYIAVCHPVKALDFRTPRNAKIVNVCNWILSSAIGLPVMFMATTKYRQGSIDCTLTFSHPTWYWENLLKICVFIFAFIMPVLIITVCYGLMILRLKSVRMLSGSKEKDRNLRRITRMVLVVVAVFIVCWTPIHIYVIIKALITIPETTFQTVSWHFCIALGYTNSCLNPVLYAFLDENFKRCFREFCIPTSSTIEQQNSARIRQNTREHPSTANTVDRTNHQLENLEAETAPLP

[7] = molecular target: T3, δ-opioid receptor (Mus musculus, UniProt P32300); experiment: biochemical; assay type: biochemical, human; conditions: read-out: Emax, δ, inhibition of basal [35S]GTPγS binding
T3 construct: hemagglutinin (HA); expressed in transfected cells
T3 sequence (P32300 whole entry): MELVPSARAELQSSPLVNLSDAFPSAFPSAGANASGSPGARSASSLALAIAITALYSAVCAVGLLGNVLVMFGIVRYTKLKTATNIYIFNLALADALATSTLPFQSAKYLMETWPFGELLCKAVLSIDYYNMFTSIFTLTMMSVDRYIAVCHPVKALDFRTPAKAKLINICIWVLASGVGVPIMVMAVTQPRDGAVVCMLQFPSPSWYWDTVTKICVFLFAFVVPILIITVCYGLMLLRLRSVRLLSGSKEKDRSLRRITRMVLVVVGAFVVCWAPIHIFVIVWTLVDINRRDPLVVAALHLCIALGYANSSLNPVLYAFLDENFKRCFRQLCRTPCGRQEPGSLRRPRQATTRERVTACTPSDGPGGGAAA

[8] = system: T4, κ-opioid receptor; experiment: biochemical; assay type: biochemical, human; conditions: read-out: Emax, κ, inhibition of basal [35S]GTPγS binding
T4 construct: FLAG; expressed in transfected cells
T4 sequence (P33534 whole entry): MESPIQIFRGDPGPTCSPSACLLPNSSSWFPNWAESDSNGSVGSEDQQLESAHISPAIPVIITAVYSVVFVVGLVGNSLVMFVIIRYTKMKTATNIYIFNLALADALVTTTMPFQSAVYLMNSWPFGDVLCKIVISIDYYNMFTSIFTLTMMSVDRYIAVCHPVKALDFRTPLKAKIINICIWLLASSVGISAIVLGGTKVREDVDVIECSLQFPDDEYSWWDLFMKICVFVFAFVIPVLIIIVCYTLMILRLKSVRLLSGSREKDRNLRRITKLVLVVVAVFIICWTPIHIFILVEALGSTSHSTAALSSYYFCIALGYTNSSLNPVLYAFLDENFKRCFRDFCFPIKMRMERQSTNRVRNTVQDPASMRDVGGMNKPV

[9] = molecular target: T5, κ-opioid receptor (Mus musculus, UniProt P33534); experiment: biochemical; set-up: species or system human
T5 construct: FLAG; expressed in transfected cells
T5 sequence (P33534 whole entry): as above

[10] = molecular target: T2, μ-opioid receptor; experiment: biochemical; assay type: biochemical, human; conditions: read-out: Emax, μ, inhibition of basal [35S]GTPγS binding
[11] = molecular target: T1, NOP (nociceptin) receptor; experiment: Inhibition of basal [35S]GTPγS binding (inverse agonism), NOP; assay type: biochemical; set-up: FLAG; expressed in transfected cells
[12] = Metabolism of compound 6 in human liver microsomes; conditions: going from pH 7.4 to pH 10
Description: For analysis, 50 μg of 6,6-N-oxide and bromobenzoic acid was used as TLC standards and the UV-vis bands corresponding to these regions were scraped and placed in scintillation vials for counting and quantification. For the HPLC assay, the incubation was stopped by the addition of isopropanol/CH2Cl2 (3/1, v/v), mixed thoroughly and the organic layer was separated by centrifugation. […] The analytes were quantified on the basis of HPLC peak height.

[13] = molecular target: T3, δ-opioid receptor; experiment: biochemical; set-up: species or system human
[14] = Solubility in H2O; conditions: for Solubility in H2O: salt as labelled
[15] = system: rats self-administering 0.5 mg/kg/injection of cocaine; experiment: Cocaine self-administration, short (ShA) and long access (LgA)
[16] = read-out: Emax, μ, stimulation of [35S]GTPγS binding
[17] = read-out: Emax, κ, stimulation of [35S]GTPγS binding
[18] = read-out: Emax, δ, stimulation of [35S]GTPγS binding
[19] = doses of 0.0125, 0.025 and 0.05 mg/kg

## CC(C)(C)c1ccc(C(=O)N[C@@H]2CC[C@@]3(O)[C@H]4Cc5ccc(O)c6c5[C@@]3(CCN4CC3CC3)[C@H]2O6)cc1 [Compound 8, 6-(4′-t-Butyl)benzamido-14-hydroxy-17-(cyclopropylmethyl)nordesmorphine]
[1]
  Overall effect on operant self-administration of 10% ethanol: had an overall effect
[1]; only a dose of 0.05 mg/kg
  Post hoc analysis vs vehicle, operant self-administration of 10% ethanol: significantly inhibited
[2]
  half-life at 40 μM: > 1.87 h
[3]
  half-life at 40 μM: > 1.87 h
[4]
  Overall effect on operant self-administration of saccharin vs vehicle: did not have an overall effect
other
  melting point: 151.1 °C
[5]
  Emax: 0%

## O=C(N[C@@H]1CC[C@@]2(O)[C@H]3Cc4ccc(O)c5c4[C@@]2(CCN3CC2CC2)[C@H]1O5)c1ccc(Br)cc1 [Compound 6, 6-β-(4′-Bromo)benzamido-14-hydroxy-17-(cyclopropylmethyl) nordesmorphine]
[6]
  Emax, μ, stimulation of [35S]GTPγS binding: 38 ± 4.3%
[6]; [16]
  Emax: 28 to 63%
[7]
  Emax: 35 ± 4.8%
[2]
  half-life at 40 μM: > 1.87 h
[3]
  half-life at 40 μM: > 1.87 h
[8]
  Emax: 0%
[9]
  Emax, κ, stimulation of [35S]GTPγS binding: 42 ± 3.9%
[9]; [17]
  Emax: 28 to 63%
[10]
  Emax: 0%
[5]
  Emax: 0%
[11]
  EC50: 94 ± 33 nM
[11]; read-out: Emax, NOP, inhibition of basal [35S]GTPγS binding
  Emax: 92 ± 7.4%
[12]
  Rate of N-oxide formation, dependence on pH: the rate doubled
[13]
  Emax, δ, stimulation of [35S]GTPγS binding: 46 ± 3.7%
[13]; [18]
  Emax: 28 to 63%

## [D-pen2, D-pen5]-enkephalin [Compound 14, reference compound]
[5]
  Emax: 0%

## C=C1CC[C@@]2(O)[C@H]3Cc4ccc(O)c5c4[C@@]2(CCN3CC2CC2)[C@H]1O5 [Compound 1b, nalmefene, reference compound]
[1]
  Overall effect on operant self-administration of 10% ethanol: had an overall effect
  ED50: ~0.04 mg/kg
[1]; [19]
  Post hoc analysis vs vehicle, operant self-administration of 10% ethanol: significantly inhibited
[2]
  half-life at 40 μM: 0.333 h
[3]
  half-life at 40 μM: 0.333 h
[4]
  Overall effect on operant self-administration of saccharin vs vehicle: did not have an overall effect

## Cc1ccc(C(=O)N[C@@H]2CC[C@@]3(O)[C@H]4Cc5ccc(O)c6c5[C@@]3(CCN4CC3CC3)[C@H]2O6)cc1 [Compound 4, 6-β-(4′-Methyl)benzamido-14-hydroxy-17-(cyclopropylmethyl) nordesmorphine]
[2]
  Half Life, Mouse liver preparation: remained unchanged
[3]
  Half Life, Human liver preparation: remained unchanged
other
  melting point: 207.6 °C
[10]
  Emax: 3 ± 2.4%
[5]
  Emax: 0%

## O=C(N[C@@H]1CC[C@@]2(O)[C@H]3Cc4ccc(O)c5c4[C@@]2(CCN3CC2CC2)[C@H]1O5)c1ccc(I)cc1 [Compound 7, 6-β-(4′-Iodo)benzamido-14-hydroxy-17-(cyclopropylmethyl)nordesmorphine]
[6]; [16]
  Emax: 28 to 63%
[1]
  Overall effect on operant self-administration of 10% ethanol: had an overall effect
[1]; only a dose of 0.05 mg/kg
  Post hoc analysis vs vehicle, operant self-administration of 10% ethanol: significantly inhibited
[4]
  Overall effect on operant self-administration of saccharin vs vehicle: did have an overall effect
[5]
  Emax: 0%
[13]; [18]
  Emax: 28 to 63%

## O=C(N[C@@H]1CC[C@@]2(O)[C@H]3Cc4ccc(O)c5c4[C@@]2(CCN3CC2CC2)[C@H]1O5)c1ccc(Br)cc1.O=C(O)C(=O)O [Compound 6-oxalate, 6-β-(4′-Bromo)benzamido-14-hydroxy-17-(cyclopropylmethyl) nordesmorphine-oxalate]
[14]
  Solubility in H2O: 0.2 mg/mL
[15]
  Cocaine intake, schedule not stated: decreased cocaine intake in both groups
  Cocaine self-administration under a PR schedule: dose-dependently decreased cocaine self-administration

## Oc1ccc2c3c1O[C@H]1c4[nH]c5c(c4C[C@@]4(O)[C@@H](C2)N(CC2CC2)CC[C@]314)C[C@@]1(O)[C@H]2Cc3ccc(O)c4c3[C@@]1(CCN2CC1CC1)[C@H]5O4 [Nor-BNI, reference compound]
[15]
  Cocaine self-administration under a PR schedule: decreased cocaine intake in LgA rats

## CN(C(=O)c1ccc(Br)cc1)[C@H]1CC[C@@]2(O)[C@H]3Cc4ccc(O)c5c4[C@@]2(CCN3CC2CC2)[C@H]1O5.O=C(O)C(=O)O [14a—Oxalate, 6-α-(4′-Bromo)-N-methylbenzamido-14-hydroxy-17-(cyclopropylmethyl)nordesmorphine oxalate]
[14]
  Solubility in H2O: 6.7 mg/mL

## O=C(N[C@@H]1CC[C@@]2(O)[C@H]3Cc4ccc(O)c5c4[C@@]2(CCN3CC2CC2)[C@H]1O5)c1ccc(C(F)(F)F)cc1 [Compound 5, 6-β-(4′-Trifluoromethyl)benzamido-14-hydroxy-17-(cyclopropylmethyl)nordesmorphine]
[6]; [16]
  Emax: 28 to 63%
[1]
  Overall effect on operant self-administration of 10% ethanol: had an overall effect
[1]; [19]
  Post hoc analysis vs vehicle, operant self-administration of 10% ethanol: significantly inhibited
[2]
  Half Life, Mouse liver preparation: remained unchanged
[3]
  Half Life, Human liver preparation: remained unchanged
[4]
  Overall effect on operant self-administration of saccharin vs vehicle: did have an overall effect
[4]; […] for 5, 0.05 mg/kg for 6, the only such doses
  Post-hoc analysis vs vehicle, self-administration of saccharin: significantly inhibited
other
  melting point: 157.5 °C
[9]; [17]
  Emax: 28 to 63%
[5]
  Emax: 0%

## O=C(N[C@@H]1CC[C@@]2(O)[C@H]3Cc4ccc(O)c5c4[C@@]2(CCN3CC2CC2)[C@H]1O5)c1ccc(Cl)cc1 [Compound 10, 6-β-(4′-Chloro)benzamido-14-hydroxy-17-(cyclopropylmethyl)nordesmorphine]
[6]; [16]
  Emax: 46 ± 3.8%
[6]; read-out: Emax, μ, stimulation of [35S]GTPγS binding, percentage of basal [35S]GTPγS binding stimulation
  Emax: 28 to 63%
[7]
  Emax: 0%
[8]
  Emax: 0%
other
  melting point: 188.8 °C
[9]; read-out: Emax, κ, stimulation of [35S]GTPγS binding, percentage of basal [35S]GTPγS binding stimulation
  Emax: 28 to 63%
[10]
  Emax: 0%
[11]
  EC50: 88 ± 19 nM
[13]; [18]
  Emax: 22 ± 1.7%
[13]; read-out: Emax, δ, stimulation of [35S]GTPγS binding, percentage of basal [35S]GTPγS binding stimulation
  Emax: 28 to 63%

## O=C1CC[C@@]2(O)[C@H]3Cc4ccc(O)c5c4[C@@]2(CCN3CC2CC2)[C@H]1O5 [Compound 1a, naltrexone, reference compound]
[1]
  ED50: ~0.5 mg/kg
[15]
  Cocaine intake, schedule not stated: decreased cocaine intake in both groups

## O=C(/C=C/c1ccoc1)N[C@@H]1CC[C@@]2(O)[C@H]3Cc4ccc(O)c5c4[C@@]2(CCN3CC2CC2)[C@H]1O5.O=C(O)C(=O)O (relative stereo) [Compound 19b.Oxalate, 17-Cyclopropylmethyl-3,14β-dihydroxy-4,5α-epoxy-6β-[-trans-3-(3-furyl)acrylamido]morphinan oxalate]
[14]; water
  solubility: 24 mg/mL
